{"source": "ChEMBL document CHEMBL4393656", "about": "“Cationic biaryl 1,2,3-triazolyl peptidomimetic amphiphiles targeting Clostridioides (Clostridium) difficile: Synthesis, antibacterial evaluation and an in vivo C. difficile infection model” (Eur J Med Chem, 2019)"}
{"test_system": "Staphylococcus aureus", "assay": "Growth inhibition of Staphylococcus aureus ATCC 29213 incubated in MHB broth for 24 hrs", "format": "organism-based", "conditions": "not given", "units": {"MIC": "µg/mL"}}
{"smiles": "CC(C)CCOc1ccccc1-c1ccccc1OCc1cn([C@H](CCCNC(=N)N)C(=O)NCc2ccc(C(F)(F)F)cc2)nn1.Cl", "MIC": 16}
{"smiles": "CC(C)CCOc1ccccc1-c1ccccc1OCc1cn([C@H](CCCNC(=N)N)C(=O)NCc2cc(F)cc(F)c2)nn1.Cl", "MIC": 8}
{"smiles": "CC(C)CCOc1ccccc1-c1ccccc1OCc1cn([C@H](CCCNC(=N)N)C(=O)NCC2CCCCC2)nn1.Cl", "MIC": 4}
{"smiles": "CC(C)CCOc1ccccc1-c1ccccc1OCc1cn([C@H](CCCCN)C(=O)N[C@H](CCCNC(=N)N)Cn2cc(C3CCCCC3)nn2)nn1.Cl.Cl", "MIC": 16}
{"smiles": "CC(C)CCOc1ccc2ccccc2c1-c1c(OCc2cn([C@H](CCCCN)C(=O)N[C@H](CCCNC(=N)N)Cn3cc(CC4CCCCC4)nn3)nn2)ccc2ccccc12.Cl.Cl", "MIC": 4}
{"test_system": "Enterococcus faecalis", "assay": "Growth inhibition of Enterococcus faecalis ATCC 29212 incubated in MHB broth for 24 hrs", "format": "organism-based", "conditions": "not given", "units": {"MIC": "µg/mL"}}
{"smiles": "CC(C)CCOc1ccccc1-c1ccccc1OCc1cn([C@H](CCCNC(=N)N)C(=O)NCc2ccc(C(F)(F)F)cc2)nn1.Cl", "MIC": 16}
{"smiles": "CC(C)CCOc1ccccc1-c1ccccc1OCc1cn([C@H](CCCNC(=N)N)C(=O)NCc2cc(F)cc(F)c2)nn1.Cl", "MIC": 8}
{"smiles": "CC(C)CCOc1ccccc1-c1ccccc1OCc1cn([C@H](CCCNC(=N)N)C(=O)NCC2CCCCC2)nn1.Cl", "MIC": 8}
{"smiles": "CC(C)CCOc1ccccc1-c1ccccc1OCc1cn([C@H](CCCCN)C(=O)N[C@H](CCCNC(=N)N)Cn2cc(C3CCCCC3)nn2)nn1.Cl.Cl", "MIC": 16}
{"smiles": "CC(C)CCOc1ccc2ccccc2c1-c1c(OCc2cn([C@H](CCCCN)C(=O)N[C@H](CCCNC(=N)N)Cn3cc(CC4CCCCC4)nn3)nn2)ccc2ccccc12.Cl.Cl", "MIC": 4}
{"test_system": "Streptococcus pneumoniae", "assay": "Growth inhibition of Streptococcus pneumoniae ATCC 49619 incubated in MHB medium with lysed horse blood and 5% CO2 for 24 hrs", "format": "organism-based", "conditions": "not given", "units": {"MIC": "µg/mL"}}
{"smiles": "CC(C)CCOc1ccccc1-c1ccccc1OCc1cn([C@H](CCCNC(=N)N)C(=O)NCc2ccc(C(F)(F)F)cc2)nn1.Cl", "MIC": 32}
{"smiles": "CC(C)CCOc1ccccc1-c1ccccc1OCc1cn([C@H](CCCNC(=N)N)C(=O)NCc2cc(F)cc(F)c2)nn1.Cl", "MIC": 16}
{"smiles": "CC(C)CCOc1ccccc1-c1ccccc1OCc1cn([C@H](CCCNC(=N)N)C(=O)NCC2CCCCC2)nn1.Cl", "MIC": 8}
{"smiles": "CC(C)CCOc1ccccc1-c1ccccc1OCc1cn([C@H](CCCCN)C(=O)N[C@H](CCCNC(=N)N)Cn2cc(C3CCCCC3)nn2)nn1.Cl.Cl", "MIC": 32}
{"smiles": "CC(C)CCOc1ccc2ccccc2c1-c1c(OCc2cn([C@H](CCCCN)C(=O)N[C@H](CCCNC(=N)N)Cn3cc(CC4CCCCC4)nn3)nn2)ccc2ccccc12.Cl.Cl", "MIC": 4}
{"test_system": "Clostridioides difficile", "assay": "Antibacterial activity against Clostridium difficile ATCC 700057 incubated for 2 to 4 hrs in pre-reduced brucella broth supplemented with haemin/vitamin K and further incubation in anaerobic condition for 48 hrs", "format": "functional", "conditions": "not given", "units": {"MIC": "µg/mL"}}
{"smiles": "CC(C)CCOc1ccccc1-c1ccccc1OCc1cn([C@H](CCCNC(=N)N)C(=O)NCc2ccc(C(F)(F)F)cc2)nn1.Cl", "MIC": 128}
{"smiles": "CC(C)CCOc1ccccc1-c1ccccc1OCc1cn([C@H](CCCNC(=N)N)C(=O)NCc2cc(F)cc(F)c2)nn1.Cl", "MIC": 32}
{"smiles": "CC(C)CCOc1ccccc1-c1ccccc1OCc1cn([C@H](CCCNC(=N)N)C(=O)NCC2CCCCC2)nn1.Cl", "MIC": 32}
{"smiles": "CC(C)CCOc1ccccc1-c1ccccc1OCc1cn([C@H](CCCCN)C(=O)N[C@H](CCCNC(=N)N)Cn2cc(C3CCCCC3)nn2)nn1.Cl.Cl", "MIC": 64}
{"smiles": "CC(C)CCOc1ccc2ccccc2c1-c1c(OCc2cn([C@H](CCCCN)C(=O)N[C@H](CCCNC(=N)N)Cn3cc(CC4CCCCC4)nn3)nn2)ccc2ccccc12.Cl.Cl", "MIC": 16}
{"test_system": "Clostridioides difficile", "assay": "Antibacterial activity against Clostridium difficile NSW132 RT027 incubated for 2 to 4 hrs in pre-reduced brucella broth supplemented with haemin/vitamin K and further incubation in anaerobic condition for 48 hrs", "format": "functional", "conditions": "not given", "units": {"MIC": "µg/mL"}}
{"smiles": "CC(C)CCOc1ccccc1-c1ccccc1OCc1cn([C@H](CCCNC(=N)N)C(=O)NCc2ccc(C(F)(F)F)cc2)nn1.Cl", "MIC": 128}
{"smiles": "CC(C)CCOc1ccccc1-c1ccccc1OCc1cn([C@H](CCCNC(=N)N)C(=O)NCc2cc(F)cc(F)c2)nn1.Cl", "MIC": 32}
{"smiles": "CC(C)CCOc1ccccc1-c1ccccc1OCc1cn([C@H](CCCNC(=N)N)C(=O)NCC2CCCCC2)nn1.Cl", "MIC": 64}
{"smiles": "CC(C)CCOc1ccccc1-c1ccccc1OCc1cn([C@H](CCCCN)C(=O)N[C@H](CCCNC(=N)N)Cn2cc(C3CCCCC3)nn2)nn1.Cl.Cl", "MIC": 128}
{"smiles": "CC(C)CCOc1ccc2ccccc2c1-c1c(OCc2cn([C@H](CCCCN)C(=O)N[C@H](CCCNC(=N)N)Cn3cc(CC4CCCCC4)nn3)nn2)ccc2ccccc12.Cl.Cl", "MIC": 16}
{"test_system": "Escherichia coli", "assay": "Growth inhibition of Escherichia coli ATCC 25922 incubated for 18 hrs", "format": "organism-based", "conditions": "not given", "units": {"MIC": "µg/mL"}}
{"smiles": "CC(C)CCOc1ccccc1-c1ccccc1OCc1cn([C@H](CCCNC(=N)N)C(=O)NCc2ccc(C(F)(F)F)cc2)nn1.Cl", "MIC": "> 32"}
{"smiles": "CC(C)CCOc1ccccc1-c1ccccc1OCc1cn([C@H](CCCNC(=N)N)C(=O)NCc2cc(F)cc(F)c2)nn1.Cl", "MIC": "> 32"}
{"smiles": "CC(C)CCOc1ccccc1-c1ccccc1OCc1cn([C@H](CCCNC(=N)N)C(=O)NCC2CCCCC2)nn1.Cl", "MIC": "> 32"}
{"smiles": "CC(C)CCOc1ccccc1-c1ccccc1OCc1cn([C@H](CCCCN)C(=O)N[C@H](CCCNC(=N)N)Cn2cc(C3CCCCC3)nn2)nn1.Cl.Cl", "MIC": 8}
{"smiles": "CC(C)CCOc1ccc2ccccc2c1-c1c(OCc2cn([C@H](CCCCN)C(=O)N[C@H](CCCNC(=N)N)Cn3cc(CC4CCCCC4)nn3)nn2)ccc2ccccc12.Cl.Cl", "MIC": "> 32"}
{"test_system": "Klebsiella pneumoniae", "assay": "Growth inhibition of Klebsiella pneumoniae ATCC 700603 incubated for 18 hrs", "format": "organism-based", "conditions": "not given", "units": {"MIC": "µg/mL"}}
{"smiles": "CC(C)CCOc1ccccc1-c1ccccc1OCc1cn([C@H](CCCNC(=N)N)C(=O)NCc2ccc(C(F)(F)F)cc2)nn1.Cl", "MIC": "> 32"}
{"smiles": "CC(C)CCOc1ccccc1-c1ccccc1OCc1cn([C@H](CCCNC(=N)N)C(=O)NCc2cc(F)cc(F)c2)nn1.Cl", "MIC": "> 32"}
{"smiles": "CC(C)CCOc1ccccc1-c1ccccc1OCc1cn([C@H](CCCNC(=N)N)C(=O)NCC2CCCCC2)nn1.Cl", "MIC": "> 32"}
{"smiles": "CC(C)CCOc1ccccc1-c1ccccc1OCc1cn([C@H](CCCCN)C(=O)N[C@H](CCCNC(=N)N)Cn2cc(C3CCCCC3)nn2)nn1.Cl.Cl", "MIC": 16}
{"smiles": "CC(C)CCOc1ccc2ccccc2c1-c1c(OCc2cn([C@H](CCCCN)C(=O)N[C@H](CCCNC(=N)N)Cn3cc(CC4CCCCC4)nn3)nn2)ccc2ccccc12.Cl.Cl", "MIC": "> 32"}
{"test_system": "Acinetobacter baumannii", "assay": "Growth inhibition of Acinetobacter baumannii ATCC 19606 incubated for 18 hrs without shaking by absorbance based monochromator plate reader analysis", "format": "organism-based, ATCC 19606 = CIP 70.34 = JCM 6841", "conditions": "in vitro", "units": {"MIC": "µg/mL"}}
{"smiles": "CC(C)CCOc1ccccc1-c1ccccc1OCc1cn([C@H](CCCNC(=N)N)C(=O)NCc2ccc(C(F)(F)F)cc2)nn1.Cl", "MIC": "> 32"}
{"smiles": "CC(C)CCOc1ccccc1-c1ccccc1OCc1cn([C@H](CCCNC(=N)N)C(=O)NCc2cc(F)cc(F)c2)nn1.Cl", "MIC": "> 32"}
{"smiles": "CC(C)CCOc1ccccc1-c1ccccc1OCc1cn([C@H](CCCNC(=N)N)C(=O)NCC2CCCCC2)nn1.Cl", "MIC": "> 32"}
{"smiles": "CC(C)CCOc1ccccc1-c1ccccc1OCc1cn([C@H](CCCCN)C(=O)N[C@H](CCCNC(=N)N)Cn2cc(C3CCCCC3)nn2)nn1.Cl.Cl", "MIC": 8}
{"smiles": "CC(C)CCOc1ccc2ccccc2c1-c1c(OCc2cn([C@H](CCCCN)C(=O)N[C@H](CCCNC(=N)N)Cn3cc(CC4CCCCC4)nn3)nn2)ccc2ccccc12.Cl.Cl", "MIC": 8}
{"test_system": "Pseudomonas aeruginosa", "assay": "Growth inhibition of Pseudomonas aeruginosa ATCC 27853 incubated for 18 hrs", "format": "organism-based", "conditions": "not given", "units": {"MIC": "µg/mL"}}
{"smiles": "CC(C)CCOc1ccccc1-c1ccccc1OCc1cn([C@H](CCCNC(=N)N)C(=O)NCc2ccc(C(F)(F)F)cc2)nn1.Cl", "MIC": "> 32"}
{"smiles": "CC(C)CCOc1ccccc1-c1ccccc1OCc1cn([C@H](CCCNC(=N)N)C(=O)NCc2cc(F)cc(F)c2)nn1.Cl", "MIC": "> 32"}
{"smiles": "CC(C)CCOc1ccccc1-c1ccccc1OCc1cn([C@H](CCCNC(=N)N)C(=O)NCC2CCCCC2)nn1.Cl", "MIC": "> 32"}
{"smiles": "CC(C)CCOc1ccccc1-c1ccccc1OCc1cn([C@H](CCCCN)C(=O)N[C@H](CCCNC(=N)N)Cn2cc(C3CCCCC3)nn2)nn1.Cl.Cl", "MIC": 16}
{"smiles": "CC(C)CCOc1ccc2ccccc2c1-c1c(OCc2cn([C@H](CCCCN)C(=O)N[C@H](CCCNC(=N)N)Cn3cc(CC4CCCCC4)nn3)nn2)ccc2ccccc12.Cl.Cl", "MIC": 32}
{"test_system": "Staphylococcus aureus", "assay": "Growth inhibition of methicillin-resistant Staphylococcus aureus ATCC 43300 incubated for 18 hrs", "format": "organism-based", "conditions": "not given", "units": {"MIC": "µg/mL"}}
{"smiles": "CC(C)CCOc1ccccc1-c1ccccc1OCc1cn([C@H](CCCNC(=N)N)C(=O)NCC2CCCCC2)nn1.Cl", "MIC": 4}
{"smiles": "CC(C)CCOc1ccccc1-c1ccccc1OCc1cn([C@H](CCCCN)C(=O)N[C@H](CCCNC(=N)N)Cn2cc(C3CCCCC3)nn2)nn1.Cl.Cl", "MIC": 4}
{"smiles": "CC(C)CCOc1ccc2ccccc2c1-c1c(OCc2cn([C@H](CCCCN)C(=O)N[C@H](CCCNC(=N)N)Cn3cc(CC4CCCCC4)nn3)nn2)ccc2ccccc12.Cl.Cl", "MIC": 2}
{"test_system": "not listed separately", "assay": "Cytotoxicity against HEK293 cells assessed as decrease in cell viability after 20 hrs by resazurin dye-based fluorescence assay", "conditions": "human", "units": {"CC50 at 20 h": "µg/mL"}}
{"smiles": "CC(C)CCOc1ccccc1-c1ccccc1OCc1cn([C@H](CCCNC(=N)N)C(=O)NCc2ccc(C(F)(F)F)cc2)nn1.Cl", "CC50 at 20 h": "> 32"}
{"smiles": "CC(C)CCOc1ccccc1-c1ccccc1OCc1cn([C@H](CCCNC(=N)N)C(=O)NCc2cc(F)cc(F)c2)nn1.Cl", "CC50 at 20 h": 22.9}
{"smiles": "CC(C)CCOc1ccccc1-c1ccccc1OCc1cn([C@H](CCCNC(=N)N)C(=O)NCC2CCCCC2)nn1.Cl", "CC50 at 20 h": 16.9}
{"smiles": "CC(C)CCOc1ccccc1-c1ccccc1OCc1cn([C@H](CCCCN)C(=O)N[C@H](CCCNC(=N)N)Cn2cc(C3CCCCC3)nn2)nn1.Cl.Cl", "CC50 at 20 h": 19.8}
{"smiles": "CC(C)CCOc1ccc2ccccc2c1-c1c(OCc2cn([C@H](CCCCN)C(=O)N[C@H](CCCNC(=N)N)Cn3cc(CC4CCCCC4)nn3)nn2)ccc2ccccc12.Cl.Cl", "CC50 at 20 h": 16.6}
